# Laboratory results as given in PMC4872784 (Oncotarget, 2016).
# Values joined by “and” are separate entries in the source; they are usually repeats but may differ in a detail not shown here. Equal entries are not always repeated.
# How the values were obtained:
# MOLM14 cells [1] = experiment: clonogenicity (colony formation in semi-solid medium); format: cell-based, human; settings: 24h pretreatment
# Experimental: (§1) Following subtraction of background fluorescence from all wells, fluorescence of drug-treated cells was normalized to that of vehicle (<0.5% DMSO)-treated cells to determine the effect of each drug concentration on viability. Each cell line was tested in triplicate and in at least three independent experiments. IC50 (concentration that inhibits cell growth by 50%) values were calculated using CompuSyn software (ComboSyn, Paramus, NJ). […] In addition several cell lines were initially cultured and tested in alternative media (Supplementary Table S2). […] Colony counts were normalized to vehicle-treated controls (100%). Three independent experiments were performed.
# (§2) After 7-10d (leukemia cells) or 10-14d (HSPCs), colonies (≥20 cells) were enumerated.
# MV-4-11 cells = experiment: as above; format: cell-based, human; settings: 24h pretreatment
# Experimental: as §1, §2
# HL-60 cells = experiment: as above; format: cell-based, human; settings: 24h pretreatment
# Experimental: (§3) page 2: Supplementary Figure S3: […] hours. Two B-ALL (KOPN8, SEM) and two AML (MOLM14, THP-1) cell lines were treated with the indicated concentrations of ART- 838 or AS for 24–96 h, then viability determined as in Figure 1A. Data are represented as mean +/– SD. Supplementary Figure S4: […] Colony-forming assays were performed as in Figure 1B in A. K562 and B. HL-60 AML cell lines. Each experiment was performed once in triplicate. Data are represented as mean +/– SD.
# K562 cells = experiment: as above; format: cell-based, human; settings: 24h pretreatment
# Experimental: as §3
# normal human CD34+ HSPCs = experiment: clonogenicity of normal HSPCs; format: cell-based
# Experimental: Cryopreserved human CD34^+ HSPCs from normal adult donors (Cellular Therapy and Cell Processing Facility, Fred Hutchinson Cancer Center, Seattle, WA) were thawed and cultured for 24h in StemSpanSFEM medium (Stemcell Technologies, Vancouver, BC, Canada) containing 100 ng/ml recombinant human (rh) stem cell factor, 20 ng/ml rh thrombopoietin, and 100 ng/ml rh FLT3 ligand (PeproTech, Rocky Hill, NJ), in the presence of the indicated drug concentrations prior to plating for clonogenic assays.
# Cells pretreated with ART-838, AS, or vehicle for 24h were diluted and plated in MethoCult medium (Stemcell Technologies). After 7-10d (leukemia cells) or 10-14d (HSPCs), colonies (≥20 cells) were enumerated.
# Supplementary Figure S5: Effects of ART-838 and AS on clonogenicity of normal human CD34+ HSPCs. Normal human CD34+ HSPCs were pretreated with the indicated concentrations of ART-838, AS, or vehicle (0.5% DMSO) for 24 h then cultured in semi-solid medium for 10–14d before colonies were enumerated. A. Total hematopoietic colony counts, normalized to vehicle-treated controls (100%) and B. counts of types of colonies, i.e. erythroid (E); granulocyte/macrophage (sum of GM, G and M, combined) and multilineage progenitors (GEMM). Three independent experiments were performed. Data are represented as mean +/– SEM.
# Supplementary Figure S6: ART-838 and AS concentration-response curves for KOPN8 and MOLM14. […]
# MOLM14 cells [2] = experiment: cell cycle distribution (BrdU/7-AAD flow cytometry); format: cell-based, human; settings: for sub-G1-phase cells: vehicle 2%; for S-phase cells: vehicle 38%; for G1-phase cells: vehicle 47%
# Experimental: After cell debris was gated out using FSC/SSC parameters, 10,000 cellular events were collected per sample. Data was analyzed and fluorescence compensation performed using FlowJo software, version 10 (Tree Star, Ashland, OR). A. Representative plots from a single experiment.
# Cells were pulse-labeled with 10 μM 5-bromo-2-deoxyuridine (BrdU, BD Pharmingen, San Diego, CA) for 90min (37°C), washed in PBS, then fixed in 70% ethanol (1-3d, −20°C). DNA was denatured (2 M HCl, 30min, room temperature) and neutralized (0.1 M Na2B4O7, 10min, room temperature). Cells were stained with APC-conjugated anti-BrdU antibody (BD Pharmingen) and 7-AAD (BioLegend, San Diego, CA), and analyzed by flow cytometry.
# [3] = test system: Jurkat T-cell acute lymphoblastic leukemia (T-ALL) cells; design: method as in PMID 23673218; settings: cited from earlier work
# [4] = test system: Caspase-3/7 activity in MOLM14 cells; experiment: Caspase-Glo 3/7 Assay; format: cell-based, human; settings: AS 5 μM, 24h
# Experimental: A. Quantification of the percentage of early apoptotic cells (Annexin-V+/7-AAD-) from three independent experiments in which cells were stained for apoptosis with 7-AAD and Annexin-V then analyzed by flow cytometry. […] C. […] 16h after addition of drugs, cells were washed and analyzed by flow cytometry for CM-H2DCFDA fluorescence (indicating total ROS generation) in the FL1 channel. Mean Fluorescence Intensity (MFI) was normalized to that of vehicle control (0.5% DMSO) with no pretreatment. […] Viable cell counts, obtained via Trypan Blue dye exclusion, were normalized to vehicle (0.02% DMSO)-treated samples +/– pretreatment.
# Cells were co-stained with […] each 7-AAD and APC-conjugated Annexin-V (BioLegend), in Annexin-V binding buffer and analyzed by flow cytometry. Caspase-3/7 activity was measured using a Caspase-Glo 3/7 Assay (Promega, Madison, WI).
# in vivo [5] = settings: NSG, mouse, in vivo, po
# Experimental: Blood samples were collected via
# retro-orbital bleeding into EDTA-coated tubes from MOLM14 NSG mice 1 day A-D. and 7 days E-H. after completion of a 5-day drug
# CBCs were determined using a Hemavet 950 analyzer.
# Normal blood samples were obtained from normal, untreated NSG mice (n = 37) over several years.
# in vivo [6] = settings: male, NSG, mouse, plasma, po, 200 mg/kg
# Experimental: Plasma samples were obtained from 3-6 male NSG mice per time point (15min-24h after drug administration). Symbols represent concentrations of compound by LC/MS-MS detection.
# Blood samples were collected via retro-orbital bleeding into EDTA-coated tubes. PK samples were centrifuged to obtain plasma, which was stored frozen (−80°C) until liquid chromatography/triple quadrupole mass spectrometry (LC/MS-MS) analysis.
# were separated using an Agilent Zorbax Eclipse C18 column (2.1 mm x 50 mm, 3.5 μm) using gradient mobile phase
# (acetonitrile and 2 mM ammonium acetate both containing 0.1% formic acid) and a gradient flow rate (0.2 to 0.4 ml/
# min). An AB Sciex 5500 triple quadrupole mass spectrometer was used for detection. The m/z transitions used were
# The calibration range was 5–1,000 ng/mL for all analytes. Mean drug concentrations were calculated at each time point. PK parameters (plasma
# half-life [T1/2]; time to reach Cmax [Tmax]; maximum plasma concentration [Cmax]; area under the plasma concentration-
# time curve [AUC] from time zero to the last measurable concentration [AUClast]; AUC from time zero to infinity [i.e.,
# the AUClast + the extrapolated AUC from AUClast to infinity; AUC0–∞]; apparent volume of distribution [Vz/F]; body
# weight-adjusted apparent clearance [CL/F/kg]) were calculated from mean drug concentration-time data using non-
# the r2 of the elimination rate constant (λ ) was < 0.9, the AUC , CL/F, and T were not reported (NR).
smiles,measurement,setting,value
"C[C@@H]1CCC2[C@@H](C)[C@@H](CC(COP(=O)(Oc3ccccc3)Oc3ccccc3)C[C@H]3O[C@@H]4O[C@@]5(C)CCC6[C@H](C)CCC([C@H]3C)[C@]64OO5)O[C@@H]3O[C@@]4(C)CCC1[C@@]23OO4 (some centres unmarked) [ART-838, artemisinin-derived trioxane diphenylphosphate dimer 838]",clonogenicity,MOLM14 cells [1]; ART-838 0.1 μM,completely abolished
same,clonogenicity,MV-4-11 cells; ART-838 0.1 μM,completely abolished
same,clonogenicity,HL-60 cells,reduced clonogenicity
same,clonogenicity,K562 cells,reduced clonogenicity
same,reduction of normal erythroid and monogranulocytic colony-forming cells,"normal human CD34+ HSPCs; 1 μM ART-838, 24h pretreatment",< 25%
same,sub-G1-phase cells,"MOLM14 cells [2]; 0.1 μM ART-838, 24h",> 10%
same,S-phase cells,"MOLM14 cells [2]; 0.1 μM ART-838, 24h",< 7%
same,G1-phase cells,"MOLM14 cells [2]; 0.1 μM ART-838, 24h",> 61%
same,fold lower IC50 than that of AS,[3],~70 fold
"C[C@H]1[C@H](OC(=O)CCC(=O)O)O[C@@H]2O[C@@]3(C)CC[C@H]4[C@H](C)CC[C@@H]1[C@@]24OO3 [AS, artesunate]",clonogenicity,MOLM14 cells [1]; AS 10 μM,substantially reduced
same,clonogenicity,MV-4-11 cells; AS 10 μM,substantially reduced
same,clonogenicity,HL-60 cells,reduced clonogenicity
same,clonogenicity,K562 cells,reduced clonogenicity
same,reduction of normal erythroid and monogranulocytic colony-forming cells,"normal human CD34+ HSPCs; 10 μM AS, 24h pretreatment",< 25%
same,sub-G1-phase cells,"MOLM14 cells [2]; 5 μM AS, 24h",> 10%
same,S-phase cells,"MOLM14 cells [2]; 5 μM AS, 24h",< 7%
same,G1-phase cells,"MOLM14 cells [2]; 5 μM AS, 24h",> 61%
same,caspase-3/7 activity,[4],caspase-3/7 activation
same,MTD,in vivo [5],500 to 600 mg/kg
same,MTD at 5 days/week,in vivo [5],150 to 200 mg/kg
same,AUC(0-t),in vivo [6],34.8 ng·h/mL
same,Cmax,in vivo [6],67 ng/mL and 240 nM
same,Tmax,in vivo [6],15 min
